Assay [1] addresses T1, Atypical kinase COQ8B, mitochondrial (Homo sapiens) (UniProt Q96D53).
T1 sequence (whole entry): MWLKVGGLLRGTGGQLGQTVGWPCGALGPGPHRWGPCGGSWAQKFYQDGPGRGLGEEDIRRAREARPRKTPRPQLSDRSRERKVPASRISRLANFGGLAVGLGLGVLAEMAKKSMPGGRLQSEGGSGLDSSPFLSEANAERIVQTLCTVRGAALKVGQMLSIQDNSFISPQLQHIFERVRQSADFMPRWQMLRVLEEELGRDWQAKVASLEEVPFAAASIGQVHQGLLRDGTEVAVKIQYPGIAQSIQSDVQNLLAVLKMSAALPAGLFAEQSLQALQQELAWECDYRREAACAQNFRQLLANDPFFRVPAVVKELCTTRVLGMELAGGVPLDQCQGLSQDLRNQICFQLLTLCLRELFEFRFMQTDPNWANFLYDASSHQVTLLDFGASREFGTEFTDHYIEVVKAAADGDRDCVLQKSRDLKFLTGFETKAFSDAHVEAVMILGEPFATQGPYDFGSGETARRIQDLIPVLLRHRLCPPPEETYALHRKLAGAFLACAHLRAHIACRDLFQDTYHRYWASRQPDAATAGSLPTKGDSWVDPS
To be noted: at 10 µM.

In assay [2] the target is Serine/threonine-protein kinase N2 (Homo sapiens, UniProt Q16513). Description: Selectivity interaction (KinomeScan (DiscoverX)) EUB0000607a PKN2. The conditions noted are these: at 10 µM.
The target in assay [3] is Ribosomal protein S6 kinase alpha-3 (Homo sapiens, UniProt P51812). Description: Selectivity interaction (ActivX KiNativ screen (ex vivo kinase selectivity in human PBMCs)) EUB0001619a RPS6KA3. Type of assay: cell-based. The conditions noted are these: PBMC, at 1 µM.
In assay [4] the target is T2, Mitogen-activated protein kinase kinase kinase 5 (Homo sapiens) (UniProt Q99683).
T2 sequence (whole entry): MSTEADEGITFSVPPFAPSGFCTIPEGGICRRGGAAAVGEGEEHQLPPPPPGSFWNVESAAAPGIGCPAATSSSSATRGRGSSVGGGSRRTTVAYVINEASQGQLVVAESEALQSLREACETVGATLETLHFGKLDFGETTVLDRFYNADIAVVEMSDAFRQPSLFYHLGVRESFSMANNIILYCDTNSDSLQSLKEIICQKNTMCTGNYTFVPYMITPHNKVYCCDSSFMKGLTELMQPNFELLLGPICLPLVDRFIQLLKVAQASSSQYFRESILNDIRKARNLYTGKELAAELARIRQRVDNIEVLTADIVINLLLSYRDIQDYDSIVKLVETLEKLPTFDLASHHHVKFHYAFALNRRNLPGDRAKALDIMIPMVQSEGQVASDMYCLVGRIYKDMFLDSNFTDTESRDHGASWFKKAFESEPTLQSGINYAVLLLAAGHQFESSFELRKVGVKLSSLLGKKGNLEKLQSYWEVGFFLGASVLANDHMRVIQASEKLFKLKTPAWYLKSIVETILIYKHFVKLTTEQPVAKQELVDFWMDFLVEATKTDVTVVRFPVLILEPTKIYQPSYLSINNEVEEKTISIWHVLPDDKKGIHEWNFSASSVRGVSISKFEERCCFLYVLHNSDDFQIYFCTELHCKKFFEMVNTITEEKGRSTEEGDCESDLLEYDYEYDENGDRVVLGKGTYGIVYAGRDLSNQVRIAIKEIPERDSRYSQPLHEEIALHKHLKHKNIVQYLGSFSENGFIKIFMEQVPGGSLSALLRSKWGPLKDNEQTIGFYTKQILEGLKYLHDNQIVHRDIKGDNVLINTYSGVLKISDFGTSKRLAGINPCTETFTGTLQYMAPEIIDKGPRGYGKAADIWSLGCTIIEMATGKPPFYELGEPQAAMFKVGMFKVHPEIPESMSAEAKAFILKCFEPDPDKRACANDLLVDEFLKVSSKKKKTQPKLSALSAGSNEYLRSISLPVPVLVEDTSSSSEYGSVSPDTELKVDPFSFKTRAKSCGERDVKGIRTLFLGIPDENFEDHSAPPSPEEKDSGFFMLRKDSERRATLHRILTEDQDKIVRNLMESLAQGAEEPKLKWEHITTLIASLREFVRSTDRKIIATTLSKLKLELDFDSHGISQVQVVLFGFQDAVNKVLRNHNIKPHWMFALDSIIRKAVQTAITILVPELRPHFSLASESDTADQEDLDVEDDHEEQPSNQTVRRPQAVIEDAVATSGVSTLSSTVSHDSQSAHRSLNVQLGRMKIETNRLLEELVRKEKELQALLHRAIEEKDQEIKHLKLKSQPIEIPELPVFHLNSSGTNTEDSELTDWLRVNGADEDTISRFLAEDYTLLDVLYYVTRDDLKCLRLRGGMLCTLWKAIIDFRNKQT
Put plainly: Selectivity interaction (Kinase panel (KiNativ target engagement assay in Jurkat cells)) EUB0001635a MAP3K5. The conditions noted are these: Selectivity number of off-targets 0.0, Selectivity number of targets 233.0, Source Knowledge https://www.sciencedirect.com/science/article/pii/S2451945619300674?via%3Dihub, at 1 µM. Type of assay: cell-based.

The target in assay [5] is Serine/threonine-protein kinase PAK 2 (Homo sapiens) (UniProt Q13177). Description: Selectivity interaction (Kinase panel (KiNativ target engagement assay in Jurkat cells)) EUB0001635a PAK2. Type of assay: cell-based. To be noted: Selectivity number of off-targets 0.0, Selectivity number of targets 233.0, Source Knowledge https://www.sciencedirect.com/science/article/pii/S2451945619300674?via%3Dihub, at 1 µM.
Serine/threonine-protein kinase PAK 2 (Homo sapiens), sequence (Q13177 whole entry): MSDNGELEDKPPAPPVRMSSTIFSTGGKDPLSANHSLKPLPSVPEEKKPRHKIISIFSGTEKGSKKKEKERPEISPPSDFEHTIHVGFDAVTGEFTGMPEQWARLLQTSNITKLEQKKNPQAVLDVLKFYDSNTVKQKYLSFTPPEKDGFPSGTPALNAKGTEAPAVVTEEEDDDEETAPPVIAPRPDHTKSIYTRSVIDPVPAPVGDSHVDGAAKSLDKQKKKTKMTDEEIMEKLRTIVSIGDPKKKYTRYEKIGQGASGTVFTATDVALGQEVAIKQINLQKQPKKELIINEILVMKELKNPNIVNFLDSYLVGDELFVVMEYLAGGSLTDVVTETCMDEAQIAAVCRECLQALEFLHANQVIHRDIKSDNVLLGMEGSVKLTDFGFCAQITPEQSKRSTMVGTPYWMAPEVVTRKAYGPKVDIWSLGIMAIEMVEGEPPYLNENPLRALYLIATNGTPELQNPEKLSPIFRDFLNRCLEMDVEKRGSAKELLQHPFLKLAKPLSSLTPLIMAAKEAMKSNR

Serine/threonine-protein kinase N2, sequence (Q16513 whole entry, looked up): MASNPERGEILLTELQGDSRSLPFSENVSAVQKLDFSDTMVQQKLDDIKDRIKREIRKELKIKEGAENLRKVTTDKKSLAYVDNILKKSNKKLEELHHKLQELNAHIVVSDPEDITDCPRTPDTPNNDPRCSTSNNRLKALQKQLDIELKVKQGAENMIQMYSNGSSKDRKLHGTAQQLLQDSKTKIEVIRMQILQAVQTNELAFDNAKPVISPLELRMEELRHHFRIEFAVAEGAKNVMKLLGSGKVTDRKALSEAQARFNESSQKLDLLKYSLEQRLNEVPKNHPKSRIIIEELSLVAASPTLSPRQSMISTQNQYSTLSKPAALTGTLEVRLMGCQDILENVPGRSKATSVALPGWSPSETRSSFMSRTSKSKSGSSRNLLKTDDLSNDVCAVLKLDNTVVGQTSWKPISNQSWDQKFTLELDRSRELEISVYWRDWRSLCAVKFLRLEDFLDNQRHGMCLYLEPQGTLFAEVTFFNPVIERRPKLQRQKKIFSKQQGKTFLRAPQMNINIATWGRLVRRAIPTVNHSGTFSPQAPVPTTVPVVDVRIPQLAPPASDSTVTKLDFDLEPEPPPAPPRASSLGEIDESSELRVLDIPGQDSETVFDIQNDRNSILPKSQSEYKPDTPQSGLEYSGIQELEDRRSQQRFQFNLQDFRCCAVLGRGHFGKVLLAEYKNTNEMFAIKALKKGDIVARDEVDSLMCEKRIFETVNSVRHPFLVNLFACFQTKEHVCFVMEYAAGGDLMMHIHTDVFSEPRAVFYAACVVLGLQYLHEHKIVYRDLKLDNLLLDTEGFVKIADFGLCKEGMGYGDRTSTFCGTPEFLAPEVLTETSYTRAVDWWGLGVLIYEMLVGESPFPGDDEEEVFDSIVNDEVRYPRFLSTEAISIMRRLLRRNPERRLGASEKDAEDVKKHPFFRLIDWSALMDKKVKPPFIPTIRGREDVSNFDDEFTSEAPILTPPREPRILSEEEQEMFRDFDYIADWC
Ribosomal protein S6 kinase alpha-3, sequence (P51812 whole entry): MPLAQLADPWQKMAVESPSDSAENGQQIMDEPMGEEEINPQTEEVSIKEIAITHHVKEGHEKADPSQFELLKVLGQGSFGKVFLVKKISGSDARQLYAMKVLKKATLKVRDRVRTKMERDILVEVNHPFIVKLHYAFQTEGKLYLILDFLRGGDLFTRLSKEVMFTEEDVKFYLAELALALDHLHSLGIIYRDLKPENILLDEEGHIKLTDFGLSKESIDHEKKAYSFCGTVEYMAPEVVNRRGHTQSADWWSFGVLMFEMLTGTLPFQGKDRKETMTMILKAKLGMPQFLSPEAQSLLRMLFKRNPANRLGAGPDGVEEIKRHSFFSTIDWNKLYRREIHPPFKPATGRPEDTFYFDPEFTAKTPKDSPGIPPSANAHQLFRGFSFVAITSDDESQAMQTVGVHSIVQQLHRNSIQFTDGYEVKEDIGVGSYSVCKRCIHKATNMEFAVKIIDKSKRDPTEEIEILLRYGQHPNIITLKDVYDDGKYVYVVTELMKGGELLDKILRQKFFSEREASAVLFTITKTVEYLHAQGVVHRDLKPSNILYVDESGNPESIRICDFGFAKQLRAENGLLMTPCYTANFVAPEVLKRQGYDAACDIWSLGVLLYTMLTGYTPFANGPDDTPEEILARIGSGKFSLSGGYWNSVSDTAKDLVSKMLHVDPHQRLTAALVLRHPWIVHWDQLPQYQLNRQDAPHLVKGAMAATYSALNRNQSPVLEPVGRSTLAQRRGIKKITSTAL

`CCN(CC)CCCCNc1ncc2cc(-c3cc(OC)cc(OC)c3)c(NC(=O)NC(C)(C)C)nc2n1` showed a % of control in assay [1] of 100%.

`CNC(=O)Nc1ccc(-c2nc(N3CC4CCC(C3)O4)c3cnn(C4CCC5(CC4)OCCO5)c3n2)cc1`: the % of control in assay [2] is 83%.

As to `N#Cc1cccc(-c2c[nH]c3ncnc(N4CCOCC4)c23)c1`, the % of inhibition in assay [3] was -3%. On to `C=CC(=O)Nc1ccc(C(=O)Nc2[nH]nc3c2CN(C(=O)N[C@H](CN(C)C)c2ccccc2)C3(C)C)cc1`, for which the % of engagement is 3.6% in assay [4] and 10.9% in assay [5].
